According to patent publication US11098058B2, “Bicyclic ketone compounds and methods of use thereof” (Genentech, Inc., priority 2017, dated 2021):

molecular target: T1, human RIP1 kinase domain (2-375) (Homo sapiens (Human), UniProt Q13546); assay: not given; conditions: RIP1 kinase inhibition, tight-binding apparent Ki; 50 nM enzyme, 50 μM ATP, 2 hours incubation
T1 sequence (Q13546 2-375): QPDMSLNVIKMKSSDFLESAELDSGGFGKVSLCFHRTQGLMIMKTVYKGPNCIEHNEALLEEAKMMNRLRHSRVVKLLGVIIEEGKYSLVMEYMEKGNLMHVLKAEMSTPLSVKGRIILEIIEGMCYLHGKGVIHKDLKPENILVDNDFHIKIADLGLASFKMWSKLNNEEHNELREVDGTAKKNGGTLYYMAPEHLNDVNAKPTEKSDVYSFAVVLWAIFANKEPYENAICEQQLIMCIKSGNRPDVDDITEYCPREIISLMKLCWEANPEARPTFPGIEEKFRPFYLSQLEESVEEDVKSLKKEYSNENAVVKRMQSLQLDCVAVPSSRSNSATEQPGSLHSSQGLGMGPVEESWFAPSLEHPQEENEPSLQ

Row | Structure (SMILES) | Ki
1 | O=C(c1nc2n(n1)[C@@H](c1ccccc1)C[C@H]2F)C1CC(F)(F)C1 (single isomer, unassigned) [Example 64] | 780 nM
2 | O=C(c1nc2n(n1)[C@H](c1ccccc1Cl)CC2)C1CC1 (single isomer, unassigned) [Example 77] | 14 nM
3 | O=C(c1nc2n(n1)[C@H](c1ccccc1)C[C@@H]2F)C1C2CC(F)(F)CC21 (single isomer, unassigned) [Example 80] | 33 nM
4 | O=C(c1nc2n(n1)[C@H](c1ccccc1)C[C@@H]2F)C1CC2C(C1)C2(F)F (single isomer, unassigned) [Example 82] | 10 nM
5 | CO[C@H]1C[C@@H](c2ccccc2)n2nc(C(=O)C3CC3)nc21 (single isomer, unassigned) [Example 84] | 150 nM
6 | O=C(c1nc2n(n1)[C@H](c1ccc(F)cc1)C[C@@H]2F)C1CC1 (single isomer, unassigned) [Example 85] | 9 nM
7 | O=C(c1nc2n(n1)[C@H](c1ccccc1)C[C@@H]2O)C1CC1 (single isomer, unassigned) [Example 87] | 13 nM
8 | O=C(c1nc2n(n1)[C@H](c1ccccc1)C[C@H]2O)C1CC1 (single isomer, unassigned) [Example 88] | 180 nM
9 | C[C@H]1C[C@@H]1C(=O)c1nc2n(n1)[C@H](c1ccccc1)C[C@@H]2F (single isomer, unassigned) [Example 89] | 15 nM
10 | CC[C@@H]1C[C@H](F)c2nc(C(=O)C3CC3)nn21 (single isomer, unassigned) [Example 92] | 870 nM
11 | CCC[C@@H]1C[C@H](F)c2nc(C(=O)C3CC3)nn21 (single isomer, unassigned) [Example 93] | 41 nM
12 | O=C(c1nc2n(n1)[C@H](c1ccccc1)C[C@@H]2F)C1(c2ccccn2)CC1 (single isomer, unassigned) [Example 98] | 110 nM
13 | O=C(c1nc2n(n1)[C@@H](c1ccccc1)C[C@H]2Cl)C1CC1 (single isomer, unassigned) [Example 115] | 790 nM
14 | O=C(c1nc2n(n1)[C@H](c1ccccc1)C[C@H]2Cl)C1CC1 (single isomer, unassigned) [Example 117] | 560 nM
15 | N#Cc1ccccc1[C@@H]1C[C@H](F)c2nc(C(=O)C3CC3)nn21 (single isomer, unassigned) [Example 124] | 61 nM
16 | O=C(c1nc2n(n1)[C@H](c1ccccc1)C[C@@H]2F)[C@@H]1C[C@H]2CC[C@@H]1O2 (single isomer, unassigned) [Example 140] | 150 nM
17 | O=C(c1nc2n(n1)[C@H](c1ccccc1)C[C@@H]2F)[C@H]1C[C@@H]2CC[C@H]1O2 (single isomer, unassigned) [Example 141] | 9 nM
18 | O=C(c1nc2n(n1)[C@H](c1ccccc1)CCC2)C1CC1 (single isomer, unassigned) [Example 146] | 70 nM
19 | O=C(c1nc2n(n1)[C@H](c1ncccc1F)C[C@@H]2F)C1CC1 (single isomer, unassigned) [Example 150] | 10 nM
20 | O=C(c1nc2n(n1)[C@H](c1ncccc1F)C[C@H]2F)C1CC1 (single isomer, unassigned) [Example 151] | 230 nM
21 | Cn1cc([C@@H]2C[C@H](F)c3nc(C(=O)C4CC4)nn32)cn1 (single isomer, unassigned) [Example 152] | 30 nM
22 | COc1cccc([C@@H]2C[C@H](F)c3nc(C(=O)C4CC4)nn32)c1 (single isomer, unassigned) [Example 156] | 20 nM
23 | O=C(c1nc2n(n1)[C@H](c1ccccc1)C[C@@H]2F)C1CC2(C1)CC2(F)F (stereo partly drawn) [Example 70, (2,2-difluorospiro[2.3]hexan-5-yl)-[(5S,7S)-7-fluoro-5-phenyl-6,7-dihydro-5H-pyrrolo[1,2-b][1,2,4]triazol-2-yl]methanone] | 17 nM
24 | O=C(c1nc2n(n1)[C@H](c1ccccc1)C[C@@H]2F)C1CC1c1ccccn1 (stereo partly drawn) [Example 74, [2-(2-pyridyl)cyclopropyl]-[(5S,7S)-7-fluoro-5-phenyl-6,7-dihydro-5H-pyrrolo[1,2-b][1,2,4]triazol-2-yl]methanone] | 18 nM
25 | O=C(c1nc2n(n1)[C@H](c1ccccc1)C[C@@H]2F)C1CC1C(F)(F)F (stereo partly drawn) [Example 81, [(5S,7S)-7-fluoro-5-phenyl-6,7-dihydro-5H-pyrrolo[1,2-b][1,2,4]triazol-2-yl]-[2-(trifluoromethyl)cyclopropyl]methanone] | 28 nM

Continued, values first:

Row | Ki | Structure (SMILES)
26 | 4 nM | O=C(c1nc2n(n1)[C@H](c1ccccc1F)C[C@@H]2F)C1CC1 (single isomer, unassigned) [Example 62]
27 | 4.9 nM | O=C(c1nc2n(n1)[C@H](c1ccccc1)C[C@@H]2F)C1(CO)CC1 (single isomer, unassigned) [Example 72]
28 | 3.4 nM | O=C(c1nc2n(n1)[C@H](c1ccccc1)C[C@@H]2F)C1CC(F)(F)C1 (single isomer, unassigned) [Example 73]
29 | 3.5 nM | O=C(c1nc2n(n1)[C@H](c1ccccc1)C[C@@H]2F)C1CC2(CC2)C1 (single isomer, unassigned) [Example 76]
30 | 3.7 nM | N#CCC1(C(=O)c2nc3n(n2)[C@H](c2ccccc2)C[C@@H]3F)CC1 (single isomer, unassigned) [Example 83]
31 | 3.4 nM | C[C@@H]1C[C@H]1C(=O)c1nc2n(n1)[C@H](c1ccccc1)C[C@@H]2F (single isomer, unassigned) [Example 91]
32 | 3.1 nM | O=C(c1nc2n(n1)[C@H](c1c(F)cccc1F)C[C@@H]2F)C1CC1 (single isomer, unassigned) [Example 94]
33 | 2.7 nM | N#CC1(C(=O)c2nc3n(n2)[C@H](c2ccccc2)C[C@@H]3F)CC1 (single isomer, unassigned) [Example 95]
34 | 3.6 nM | O=C(c1nc2n(n1)[C@H](c1ccccc1)C[C@@H]2F)C1CC12CC2 (single isomer, unassigned) [Example 96]
35 | 2.9 nM | O=C(c1nc2n(n1)[C@H](c1ccccc1)C[C@@H]2F)C1(C2CC2)CC1 (single isomer, unassigned) [Example 99]
36 | 3.6 nM | O=C(c1nc2n(n1)[C@H](c1c(F)ccc(F)c1F)C[C@@H]2F)C1CC1 (single isomer, unassigned) [Example 102]
37 | 3.1 nM | O=C(c1nc2n(n1)[C@H](c1cccc(F)c1F)C[C@@H]2F)C1CC1 (single isomer, unassigned) [Example 106]
38 | 3.9 nM | O=C(c1nc2n(n1)[C@H](c1cc(F)cc(F)c1F)C[C@@H]2F)C1CC1 (single isomer, unassigned) [Example 107]
39 | 3.7 nM | O=C(c1cc2n(n1)[C@H](c1ccccc1)C[C@@H]2F)C1CC1 (single isomer, unassigned) [Example 108]
40 | 4 nM | O=C(c1nc2n(n1)[C@H](c1ccccc1)C[C@@H]2Cl)C1CC1 (single isomer, unassigned) [Example 116]
41 | 5 nM | O=C(c1cc2n(n1)[C@H](c1ccccc1)C[C@@H]2F)C1CC1 (single isomer, unassigned) [Example 159]
42 | 3.4 nM | O=C(c1nc2n(n1)[C@H](c1ccccc1)C[C@@H]2F)C1(CF)CC1 [Example 79, [1-(fluoromethyl)cyclopropyl]-[(5S,7S)-7-fluoro-5-phenyl-6,7-dihydro-5H-pyrrolo[1,2-b][1,2,4]triazol-2-yl]methanone]

same assay, conditions: tight-binding apparent inhibition constant (Ki app, Morrison equation); 50 nM enzyme, 50 μM ATP, 2 hours incubation

Row | Structure (SMILES) | Ki
43 | CCC(=O)c1cc2n(n1)CC[C@H]2c1ccccc1 (single isomer, unassigned) [Example 23] | 2180 nM
44 | CCC(=O)c1cc2n(n1)CC[C@@H]2c1ccccc1 (single isomer, unassigned) [Example 24] | > 10000 nM
45 | CC1(C(=O)c2nc3n(n2)[C@H](c2ccccc2)C[C@@H]3F)COC1 (single isomer, unassigned) [Example 54] | 28 nM
46 | CC1(C(=O)c2nc3n(n2)[C@@H](c2ccccc2)C[C@H]3F)COC1 (single isomer, unassigned) [Example 55] | > 10000 nM
47 | CCC(=O)c1cn2c(n1)C(c1ccccc1)CC2 (stereo not drawn) [Example 17, 1-(7-phenyl-6,7-dihydro-5H-pyrrolo[1,2-a]imidazol-2-yl)propan-1-one] | 940 nM
48 | CCC(=O)c1cc2n(n1)C(c1ccccc1)CC2 (stereo not drawn) [Example 19, 1-(6-phenyl-5,6-dihydro-4H-pyrrolo[1,2-b]pyrazol-2-yl)propan-1-one] | 44.2 nM
49 | CC(C)(C)C(=O)c1nc2n(n1)C(c1ccccc1)CC2F (stereo not drawn) [Example 44, 1-(7-fluoro-5-phenyl-6,7-dihydro-5H-pyrrolo[1,2-b][1,2,4]triazol-2-yl)-2,2-dimethyl-propan-1-one] | 11.5 nM
50 | CC(C)C(=O)c1nc2n(n1)C(c1ccccc1)CC2F (stereo not drawn) [Example 45, 1-(7-fluoro-5-phenyl-6,7-dihydro-5H-pyrrolo[1,2-b][1,2,4]triazol-2-yl)-2-methyl-propan-1-one] | 14.3 nM

molecular target: T1, human RIP1 kinase domain (2-375); assay: biochemical; conditions: tight-binding apparent inhibition constant (Ki app, Morrison equation), 50 nM enzyme, 50 μM ATP, 2 hours incubation

Row | Structure (SMILES) | Ki
51 | CC(C)(C)C(=O)c1nc2n(n1)[C@@H](c1ccccc1)C[C@H]2F (stereo in doubt) [Example 38, 2,2-dimethyl-1-[rac-(5R,7R)-7-fluoro-5-phenyl-6,7-dihydro-5H-pyrrolo[1,2-b][1,2,4]triazol-2-yl]propan-1-one] | 4.17 nM
52 | Cn1cc(C(=O)c2nc3n(n2)[C@@H](c2ccccc2)C[C@H]3F)cn1 (stereo in doubt) [Example 39, (1-methylpyrazol-4-yl)-[rac-(5R,7R)-7-fluoro-5-phenyl-6,7-dihydro-5H-pyrrolo[1,2-b][1,2,4]triazol-2-yl]methanone] | 225 nM
53 | Cn1cc(C(=O)c2nc3n(n2)[C@H](c2ccccc2)C[C@@H]3F)cn1 (stereo in doubt) [Example 40, (1-methylpyrazol-4-yl)-[rac-(5S,7S)-7-fluoro-5-phenyl-6,7-dihydro-5H-pyrrolo[1,2-b][1,2,4]triazol-2-yl]methanone] | > 10000 nM
54 | Cn1cc(C(=O)c2nc3n(n2)[C@@H](c2ccccc2)C[C@H]3F)cn1 (stereo in doubt) [Example 48, (1-methylpyrazol-4-yl)-[rac-(5R,7R)-7-fluoro-5-phenyl-6,7-dihydro-5H-pyrrolo[1,2-b][1,2,4]triazol-2-yl]methanone] | 416 nM
